{"source": "patent US7070942B2", "about": "“Method of inducing or enhancing chondrogenesis with extracellular matrix containing GDF-5” (DePuy Spine, Inc., priority 1998, dated 2006)", "key": {"FRC [1]": {"system": "FRC", "test": "Chondrogenesis by monochromatic staining of FRC cultured in the presence of type I collagen and various growth factors", "assay_type": "cell-based, rat", "conditions": "FRC in the presence of type I collagen", "description": "The growth and differentiation factor-induced chondrogenesis is highly specific to GDF-5. It was shown that ECM-dependent chondrogenesis by GDF-5 is highly specific, by evaluating the ability of several mitogens and prototype differentiation factors under the following conditions. Chondrogenesis was assessed by monochromatic staining of FRC cultured in the presence of type I collagen and various growth factors."}, "[2]": {"system": "GDF-5/type I collagen-induced chondrogenesis", "test": "Inhibitors of intracellular signaling mediators on GDF-5/type I collagen-induced chondrogenesis", "assay_type": "cell-based", "conditions": "GDF-5 in the context of type I collagen", "text": "The molecular signaling mechanism by which GDF-5 induces chondrogenesis in the context of type I collagen was also examined using well-characterized inhibitors of intracellular signaling mediators. […] The known inhibitory effect of rapamycin on activation of p70S6 kinase indicate that GDF-5/type I collagen-induced chondrogenesis is mediated through p70S6 kinase activation."}, "[3]": {"system": "fetal rat calvarial cells (FRC's)", "test": "Fetal rat calvarial cells plated on purified extracellular matrix proteins with GDF-5; chondrogenic nodule formation, alcian blue stain", "assay_type": "cell-based", "conditions": "GDF-5 100 ng/ml", "description": "To show in vitro application, fetal rat calvarial cells (FRC's) were plated on various purified extracellular matrix proteins in the presence of recombinant human GDF-5 (100 ng/ml) for 3 weeks and scored for differentiation at the level of morphology, overall proteoglycan synthesis and deposition, and aggrecan and type II collagen expression. […] Chondrogenic nodules stained heavily with alcian blue and were positive for type II collagen and aggrecan-expression, as judged by immunohistochemical and transcriptional analyses. Cells in monolayer that surround the nodules were negative for the chondrogenic markers.\nPlastic plates were first coated with different ECM proteins including type I and II collagen, type IV collagen, or fibronectin. […] Plastic culture 12 well (Costar, Cambridge, Mass.) were coated with 0.01% (w/v) of the indicated extracellular matrix proteins for 2 hours at 37° C. After removal of nonadsorbant protein, fetal rat calvarial cells were plated at a density of 2×10^5 cells/well in DMEM containing 10% FBS. Culture plates were then maintained for 21 days in culture media supplemented with or without GDF-5 (100 ng/ml). Plates were then stained overnight with alcian blue stain (0.5% w/v in 3% acetic acid), washed and photographed. For quantitation of alcian blue, cells were solubilized in 8M urea, and the amount of stain was quantitated using spectrophotometer (Molecular Devices, Sunnyvale, Calif.)."}, "FRC cells [4]": {"system": "FRC cells", "test": "Semiquantitative PCR of aggrecan, type II collagen and type I collagen mRNA in FRC culture treated with GDF-5 in the presence of type I collagen", "assay_type": "cell-based, rat", "conditions": "FRC with GDF-5 in the presence of type I collagen", "text": "To examine correlation of changes in cellular morphology with the process of chondrogenesis, total cellular RNA and protein were isolated from FRC culture treated with GDF-5 in the presence of type I collagen. Total cellular RNA isolated from FRC cells was subjected to a semiquantitative PCR analysis using specific primers designed to amplify aggrecan, type II collagen or type I collagen. […] Under these conditions, type I collagen mRNA expression decreased by about 20%. The expression of aggrecan and type II collagen was confirmed using slot blot analysis."}, "FRC cells [5]": {"system": "FRC cells", "test": "Immunoblot of total cell lysates for type II collagen or aggrecan", "assay_type": "cell-based, rat", "description": "Total cell lysates (100 ug) were electrophoretically separated on a 8% or 5% SDSPAGE, transferred to immobilon-P and immunoblotted using antibody specific to type II collagen or aggrecan."}, "FRC [6]": {"system": "FRC", "test": "FRC seeded in porous type I collagen matrix, RT-PCR and histology with alcian or Toludine blue staining", "assay_type": "cell-based, rat", "conditions": "GDF-5 100 ng/ml, 3 weeks", "description": "A porous matrix fabricated from type I collagen was seeded by, 1×10^5 cell per implant (2×3×3 mm). Cells embedded in matrices were then cultured for 3 weeks in culture supplemented with or without GDF-5 (100 ng/ml). Total RNA isolated from each implant were then subjected to RT-PCR. […] In parallel the implant material was subject to histological evaluation followed by alcian or Toludine blue staining. […] Under these conditions FRC cells were not able to proliferate and differentiate in the ECM in the absence of GDF-5 as measured by histological evaluation total DNA, RNA or protein content."}, "FRC cells [7]": {"system": "FRC cells", "test": "FRC in 3D collagen-based matrices of different porosity, with or without hyaluronic acid coating, semi-quantitative PCR", "assay_type": "cell-based, rat", "conditions": "only in matrices coated with hyaluronic acid with the highest porosity (about 300 micron); GDF-5 100 ng/ml, 3 weeks", "description": "Each matrix composite was either coated with or without hyaluronic acid, a major component of cartilage. The implants were then seeded with 1×10^5 cells per implant and cultured for 3 weeks in the presence of GDF-5 (100 ng/ml). Total RNA extracted from each implant were then subjected to semi-quantitative PCR analysis. […] Together these findings indicate that GDP-5 chondrogenesis activity is fully and potently synergized by a matrix which contain 1) high pore size (about 100-300 micron); and 2) is composed of type I collagen which is coated with hyaluronic acid."}, "Sprague-Dawley rats": {"system": "Sprague-Dawley rats", "test": "Rat soft tissue implants, intramuscular, alkaline phosphatase activity and histology at 14 days", "assay_type": "in vivo", "text": "In vivo activity of rhGDF-5 on collagen-based matrices.\nIn Vivo Assays, Rat Soft Tissue Implants: Matrix/growth factor combinations were implanted either subcutaneously in the thoracic region or intramuscularly in posterior tibial muscle pouches created by blunt dissection in 8 week old male Sprague-Dawley rats. At 14 days post-surgery, implants were harvested, weighed and processed for routine histology (fixed in 10% formalin, paraffin-embedded, sectioned to 6 μm, and hematoxylin and eosin stained). Alternatively, implants were extracted and assayed for alkaline phosphatase activity."}, "rat limb bud cells": {"system": "rat limb bud cells", "conditions": "cited from earlier work"}, "MC3T3-E1 cells": {"system": "MC3T3-E1 cells", "conditions": "well differentiated osteoblastic MC3T3-E1 cells; cited from earlier work"}, "[8]": {"system": "rat osteoprogenitor cells ROB-C26", "conditions": "cited from earlier work"}, "[9]": {"system": "heterodimer of receptor for BMPs", "conditions": "cited from earlier work"}}}
{"compound": "IGF-II: growth factor", "values": [{"measurement": "stimulation of chondrogenesis", "setting": "FRC [1]", "value": "failed to stimulate chondrogenesis"}]}
{"compound": "bFGF: growth factor", "values": [{"measurement": "stimulation of chondrogenesis", "setting": "FRC [1]", "value": "failed to stimulate chondrogenesis"}]}
{"compound": "O=C(O)CN(CCOCCOCCN(CC(=O)O)CC(=O)O)CC(=O)O", "note": "[EGTA]", "values": [{"measurement": "inhibition of ligand-dependent chondrogenesis", "setting": "[2]", "value": "not"}]}
{"compound": "[Na+].[Na+].[Na+].[O]=[V]([O-])([O-])[O-]", "note": "[Na3VO4]", "values": [{"measurement": "inhibition of ligand-dependent chondrogenesis", "setting": "[2]", "value": "not"}]}
{"compound": "CNc1ccc2oc(C[C@H]3O[C@@]4(CC[C@H]3C)O[C@H]([C@H](C)C(=O)c3ccc[nH]3)[C@H](C)C[C@H]4C)nc2c1C(=O)O", "note": "[A23187]", "values": [{"measurement": "inhibition of ligand-dependent chondrogenesis", "setting": "[2]", "value": "completely inhibited"}]}
{"compound": "CCCC(=O)Nc1ncnc2c1ncn2[C@@H]1O[C@@H]2COP(=O)(O)O[C@H]2[C@H]1OC(=O)CCC", "note": "[dibutyryl-cAMP]", "values": [{"measurement": "inhibition of ligand-dependent chondrogenesis", "setting": "[2]", "value": "not"}]}
{"compound": "IGF-I: growth factor", "values": [{"measurement": "stimulation of chondrogenesis", "setting": "FRC [1]", "value": "failed to stimulate chondrogenesis"}]}
{"compound": "TGFb", "values": [{"measurement": "stimulation of chondrogenesis", "setting": "FRC [1]", "value": "completely failed to stimulate chondrogenesis"}]}
{"compound": "GDF-5: growth and differentiation factor-5, a member of the bone morphogenetic protein (BMP) family that is involved in joint development", "values": [{"measurement": "formation of chondrogenic cell aggregate binding alcian blue stain", "setting": "[3]; ECM-coated plastic plates (0.01% w/v), 21 days", "value": "stimulated the formation of chondrogenic cell aggregate"}, {"measurement": "formation of characteristic nodules", "setting": "[3]; FRC cultured in the presence of vehicle alone, type IV collagen or fibronectin, 21 days", "value": "fails to stimulate the formation of characteristic nodules"}, {"measurement": "chondrogenesis", "setting": "[3]; FRC's plated on fibronectin, type IV collagen or tissue culture plastic, 3 weeks", "value": "failed to stimulate chondrogenesis"}, {"measurement": "chondrogenic nodule formation", "setting": "[3]; FRC's plated on type I or type II collagen, 3 weeks", "value": "stimulated chondrogenic nodule formation"}, {"measurement": "decrease of type I collagen mRNA expression", "setting": "FRC cells [4]", "value": "about 20%"}, {"measurement": "increase of aggrecan mRNA expression", "setting": "FRC cells [4]", "value": "~3"}, {"measurement": "increase of type II collagen mRNA expression", "setting": "FRC cells [4]", "value": "around 2"}, {"measurement": "expression of type II collagen or aggrecan", "setting": "FRC cells [5]; FRC cells cultured in the absence of type I collagen", "value": "fails to stimulate expression"}, {"measurement": "steady state level of type II collagen and aggrecan", "setting": "FRC cells [5]; FRC cultured with type I collagen", "value": "significant increase"}, {"measurement": "expression of aggrecan and type II collagen (RT-PCR)", "setting": "FRC [6]; 1x10^5 cells per implant", "value": "induced expression"}, {"measurement": "cellular morphology of FRC (alcian blue staining, cell shape)", "setting": "FRC [6]; histology", "value": "marked changes in cellular morphology"}, {"measurement": "expression level of type II collagen and aggrecan", "setting": "FRC cells [7]", "value": "significant increase"}, {"measurement": "alkaline phosphatase activity and chondrogenesis", "setting": "Sprague-Dawley rats; CN/HA matrices loaded with 1, 5 and 50 μg, intramuscular in rats", "value": "dose-depended increase"}, {"measurement": "chondrogenesis and full terminal differentiation", "setting": "Sprague-Dawley rats; mineralized collagen combined with rhGDF-5, intramuscular in rats", "value": "very little evidence"}, {"measurement": "mesenchymal aggregation and chondrogenesis", "setting": "rat limb bud cells", "value": "stimulates"}, {"measurement": "alkaline phosphatase activity", "setting": "MC3T3-E1 cells", "value": "fails to stimulate"}, {"measurement": "alkaline phosphatase activity", "setting": "[8]", "value": "stimulates"}, {"measurement": "binding to heterodimer of receptor for BMPs", "setting": "[9]", "value": "binds"}]}
